Test results: patent US20240024403A1, “Compositions and Methods for Managing Weight” (Unigen, Inc., priority 2012, published 2024)

Assay: High fat diet induced obesity (DIO) mouse model
Assay type: in vivo, C57CL/6J mice
Details: for Total Weight / Total Body Weight: in g (unit assumed); for Feed intake: orlistat 40 mg/kg/day oral
Method: C57CL/6J mice aged 4-6 weeks (Korea Research Institute of Bioscience & Biotechnology, Ohchang, Korea) were housed in Polycarbonate cages (five mice per cage) in a room with a 12 hr:12 hr light-dark cycle and an ambient temperature of 24° C. All the mice were fed a commercial chow diet for 1 week after arrival in the animal facility. Mice were then divided into normal and obesity groups and fed with normal diet (ND) and high fat diets (HFD) respectively. The HFD group was divided into multiple treatment groups: a high fat diet vehicle group (HFD), an orlistat (purchased as OTC drug Alli®) positive control treatment group (ORI, 40 mg/kg of animal weight, 2 times/day) and optionally a sibutramine positive control treatment group (10 mg/kg, 1 time/day). The HFD contained 340 g of fat/kg of HFD (310 g lard plus 30 g soybean oil; Harlan Laboratories, USA). The HFD was formulated to provide 60% of the total energy generated by the diet from fat by replacing carbohydrate energy with lard and soybean oil, whereas the normal diet (ND) group was fed a diet providing only 18% of the total diet energy from fat(Harlan Laboratories, USA).
Body weight was measured once each week and feed intake was measured twice per week. At the end of the experimental period, following a 12 hr. fasting period, the animals were anesthetized with ether, and blood was drawn from the abdominal vein. Liver and kidney and adipose tissues (epididymal, retroperitoneal, perirenal adipose tissues) were removed from each animal, rinsed with physiological saline, and weighed. Serum concentrations of glucose, total cholesterol, triglycerides, and LDL-cholesterol were determined using automatic analyzer (INTEGRA 400, Roche, Germany). Statistical significance of test results was measured using the Student's t-test.

[1] = DIO mice, week 2, G1 = 1,100 mg/kg orally twice a day
[2] = DIO mice, week 2, G1 = 1,200 mg/kg orally twice a day
[3] = DIO mice, week 3, G1 = 800 mg/kg orally twice a day
[4] = DIO mice, week 3, G1 = 1,100 mg/kg orally twice a day
[5] = DIO mice, week 3, G1 = 1,200 mg/kg orally twice a day
[6] = DIO mice, week 4, G1 = 800 mg/kg orally twice a day
[7] = DIO mice, week 4, G1 = 1,100 mg/kg orally twice a day
[8] = DIO mice, week 4, G1 = 1,200 mg/kg orally twice a day
[9] = DIO mice, week 5, G1 = 800 mg/kg orally twice a day
[10] = DIO mice, week 5, G1 = 1,100 mg/kg orally twice a day
[11] = DIO mice, week 5, G1 = 1,200 mg/kg orally twice a day
[12] = DIO mice, week 6, G1 = 800 mg/kg orally twice a day
[13] = DIO mice, week 6, G1 = 1,100 mg/kg orally twice a day
[14] = DIO mice, week 6, G1 = 1,200 mg/kg orally twice a day
[15] = DIO mice, week 7, G1 = 800 mg/kg orally twice a day
[16] = DIO mice, week 7, G1 = 1,100 mg/kg orally twice a day
[17] = DIO mice, week 7, G1 = 1,200 mg/kg orally twice a day
[18] = DIO mice, week 8, G1 = 800 mg/kg orally twice a day
[19] = DIO mice, week 8, G1 = 1,100 mg/kg orally twice a day
[20] = DIO mice, week 8, G1 = 1,200 mg/kg orally twice a day
[21] = Liver pathology, DIO mice, G1 = 800 mg/kg orally twice a day
[22] = Liver pathology, DIO mice, G1 = 1,100 mg/kg orally twice a day
[23] = ORI 40 mg/kg, DIO mice, end of study
[24] = ORI 40 mg/kg, mice fed a high fat diet (Table 44)
[25] = ORI 40 mg/kg, mice fed high fat diet
[26] = ORI, DIO mice, blood at end of study
[27] = blood at end of study, orlistat 40 mg/kg oral
[28] = liver pathology score, DIO mice, combination (10:1) 1100 mg/kg twice a day
[29] = liver pathology score, mice fed a high fat diet, Mutamba fractions 250 mg/kg oral 2 times per day, mean
[30] = liver pathology score, mice fed a high fat diet, Mutamba fractions 250 mg/kg oral 2 times per day, mean (table printed twice)

## CCCCCCCCCCC[C@@H](C[C@@H]1OC(=O)[C@H]1CCCCCC)OC(=O)[C@H](CC(C)C)NC=O [ORI, orlistat]
DIO mice, week 2, G1 = 800 mg/kg orally twice a day
  Total Weight: 34.08
[1]
  Weight Gain: −6.14
  Total Weight: 34.08
[2]
  Weight Gain: −6.14
  Total Body Weight: 34.08
DIO mice, week 2, ORI group, mean, Table 134
  Total Weight: 31.91
DIO mice, week 2, ORI group, mean, Table 135
  Weight Gain: −6.69
DIO mice, week 2, ORI group, mean, Table 145
  Total Body Weight: 34.08
DIO mice, week 2, ORI group, mean, Table 146
  Weight Gain: −6.14
[3]
  Weight Gain: −4.91
  Total Weight: 35.32
[4]
  Weight Gain: −4.91
  Total Weight: 35.32
[5]
  Weight Gain: −4.91
  Total Body Weight: 35.32
DIO mice, week 3, ORI group, mean, Table 134
  Total Weight: 33.34
DIO mice, week 3, ORI group, mean, Table 135
  Weight Gain: −5.27
DIO mice, week 3, ORI group, mean, Table 145
  Total Body Weight: 35.32
DIO mice, week 3, ORI group, mean, Table 146
  Weight Gain: −4.91
[6]
  Weight Gain: −3.84
  Total Weight: 36.38
[7]
  Weight Gain: −3.84
  Total Weight: 36.38
[8]
  Weight Gain: −3.84
  Total Body Weight: 36.38
DIO mice, week 4, ORI group, mean, Table 134
  Total Weight: 35.14
DIO mice, week 4, ORI group, mean, Table 135
  Weight Gain: −3.47
DIO mice, week 4, ORI group, mean, Table 145
  Total Body Weight: 36.38
DIO mice, week 4, ORI group, mean, Table 146
  Weight Gain: −3.84
[9]
  Weight Gain: −2.57
  Total Weight: 37.65
[10]
  Weight Gain: −2.57
  Total Weight: 37.65
[11]
  Weight Gain: −2.57
  Total Body Weight: 37.65
DIO mice, week 5, ORI group, mean, Table 134
  Total Weight: 36.27
DIO mice, week 5, ORI group, mean, Table 135
  Weight Gain: −2.34
DIO mice, week 5, ORI group, mean, Table 145
  Total Body Weight: 37.65
DIO mice, week 5, ORI group, mean, Table 146
  Weight Gain: −2.57
[12]
  Weight Gain: −1.47
  Total Weight: 38.75
[13]
  Weight Gain: −1.47
  Total Weight: 38.75
[14]
  Weight Gain: −1.47
  Total Body Weight: 38.75
DIO mice, week 6, ORI group, mean, Table 134
  Total Weight: 37.52
DIO mice, week 6, ORI group, mean, Table 135
  Weight Gain: −1.08
DIO mice, week 6, ORI group, mean, Table 145
  Total Body Weight: 38.75
DIO mice, week 6, ORI group, mean, Table 146
  Weight Gain: −1.47
[15]
  Weight Gain: −0.26
  Total Weight: 39.96
[16]
  Weight Gain: −0.26
  Total Weight: 39.96
[17]
  Weight Gain: −0.26
  Total Body Weight: 39.96
DIO mice, week 7, ORI group, mean, Table 134
  Total Weight: 38.62
DIO mice, week 7, ORI group, mean, Table 135
  Weight Gain: 0.02
DIO mice, week 7, ORI group, mean, Table 145
  Total Body Weight: 39.96
DIO mice, week 7, ORI group, mean, Table 146
  Weight Gain: −0.26
[18]
  Weight Gain: −0.23
  Total Weight: 39.99
[19]
  Weight Gain: −0.23
  Total Weight: 39.99
[20]
  Weight Gain: −0.23
  Total Body Weight: 39.99
DIO mice, week 8, ORI group, mean, Table 145
  Total Body Weight: 39.99
DIO mice, week 8, ORI group, mean, Table 146
  Weight Gain: −0.23
[21]
  Hepatocellular ballooning (0-2): 0.33
  Lobular Inflammation (0-3): 1.50
  NASH (sum): 2.17
  Steatosis (0-3): 0.33
[22]
  Hepatocellular ballooning (0-2): 0.33
  Lobular Inflammation (0-3): 1.50
  NSAH (sum): 2.17
  Steatosis (0-3): 0.33
[23]
  Organ Weight: Epididymal Fat: 1.92 g
  Organ Weight: Liver: 1.12 g
  Organ Weight: Perirenal Fat: 0.33 g
  Organ Weight: Retroperitoneal Fat: 0.47 g
  Organ Weight: Total Fat: 2.73 g
[24]
  Average Body Weight Gain: -0.031 g/day
  Average Food Intake: 2.711 g/day
  Food Efficiency Ratio (FER): −0.011
[25]
  Average Body Weight Gain: -0.031 g/day
  Average Food Intake: 2.711 g/day
ORI 40 mg/kg, mice fed high fat diet, body weight gain (g/day)/food intake (g/day)
  Food Efficiency Ratio (FER): −0.011
ORI 40 mg/kg, week 0
  Total Body Weight: 42.76
ORI 40 mg/kg, week 1
  Total Body Weight: 38.73
ORI 40 mg/kg, week 2
  Total Body Weight: 35.09
ORI 40 mg/kg, week 3
  Total Body Weight: 35.66
ORI 40 mg/kg, week 4
  Total Body Weight: 37.28
ORI 40 mg/kg, week 5
  Total Body Weight: 38.57
ORI 40 mg/kg, week 6
  Total Body Weight: 40.03
ORI 40 mg/kg, week 7
  Total Body Weight: 40.91
[26]
  F-Glu (fasting glucose): 222.43 mg/dL
  LDL-C (LDL-cholesterol): 4.27 mg/dL
  T-Chol (total cholesterol): 134.57 mg/dL
[27]
  ALT: 21.83 U/L
  AST: 65.65 U/L
  LDL-C: 4.03 mg/dL
  T-chol: 137.33 mg/dL
  TG: 27.83 mg/dL
Day 4
  Feed intake: 2.23 g/day
Day 7
  Feed intake: 2.56 g/day
Day 11
  Feed intake: 3.01 g/day
Day 14
  Feed intake: 3.18 g/day
Day 21
  Feed intake: 3.27 g/day
Day 25
  Feed intake: 3.27 g/day
Day 28
  Feed intake: 3.44 g/day
Day 32
  Feed intake: 3.27 g/day
Day 35
  Feed intake: 3.35 g/day
Day 39
  Feed intake: 3.17 g/day
Day 42
  Feed intake: 3.43 g/day
Day 46
  Feed intake: 3.18 g/day
Day 49
  Feed intake: 3.54 g/day
Day 53
  Feed intake: 3.17 g/day
End of the 8 week treatment
  weight decrease: 0.23 gram
Liver pathology score sum, DIO mice, combination (10:1) 1100 mg/kg twice a day
  NASH (sum): 3.40
[28]
  Hepatocellular ballooning (0-2): 1.00
  Lobular Inflammation (0-3): 1.40
  Steatosis (0-3): 1.00
[29]
  Hepatocellular ballooning (0-2): 0.80
  Lobular Inflammation (0-3): 1.60
  Steatosis (0-3): 1.00
[30]
  Hepatocellular ballooning (0-2): 0.80
  Lobular Inflammation (0-3): 1.60
  Steatosis (0-3): 1.00
Liver pathology, sum of scores, mice fed a high fat diet, Mutamba fractions 250 mg/kg oral 2 times per day, mean
  NSAH (sum): 3.40
Liver pathology, sum of scores, mice fed a high fat diet, Mutamba fractions 250 mg/kg oral 2 times per day, mean (table printed twice)
  NSAH (sum): 3.40
